Reference: patent publication US20240108654A1, “COMBINATION OF A T CELL THERAPY AND A DGK INHIBITOR” (Juno Therapeutics, Inc., priority 2021, published 2024)

Legend:
Assay type in all cases: cell-based, human
[1] = tested on: anti-CD19 CAR-expressing T cells; assay: Cytolytic function of CAR-T cells co-cultured with CD19-expressing lymphoma cells in presence of compound; conditions: co-culture with K562.CD19, Granta-519 and Raji cells, 2.5:1 effector:target, compound present
Experimental: The cytolytic function of T cells treated with Compound 17 was assessed following co-culture of the combined CAR-T cell composition with various CD19-expressing lymphoma cells at a 2.5:1 effector:target ratio in the presence of Compound 17. The target lymphoma cells were labeled with NucLight Red (NLR) to permit their tracking by microscopy. Cytolytic activity was assessed by measuring the loss of viable target cells over a period of four to seven days, as determined by red fluorescent signal (using the IncuCyte® Live Cell Analysis System, Essen Bioscience).
Triplicate values for cell compositions manufactured from the two different healthy donors are shown.

[2] = tested on: anti-CD19 CAR-expressing T cells; assay: Cytokine production (MSD) in co-culture of CAR-T cells and CD19-expressing tumor cells in presence of compound; conditions: 48 hours co-culture with K562.CD19, Granta-519, Raji cells, compound present
Experimental: Supernatant was collected after 48 hours from the above co-cultures of CAR-expressing T cells and CD19-expressing tumor cells in the presence of Compound 17. Cytokine production was measured from the supernatant by meso scale discovery (MSD) analysis of the collected cell supernatants.

[3] = tested on: anti-CD19 CAR-expressing T cells; assay: T cell viability in acute stimulation assays
[4] = tested on: anti-CD19 CAR-expressing T cells; assay: Cytolytic activity of CAR-T cells concurrently treated during chronic stimulation, 2D re-challenge with CD19-expressing lymphoma cells; conditions: concurrent treatment during chronic stimulation; 2D re-challenge with K562.CD19, Granta-519, Raji without compound; higher concentrations
Experimental: (§1) To simulate conditions of chronic stimulation, approximately 20,000 anti-CD19 CAR-expressing T cells of a combined CAR-T cell composition produced as described in Example 1 from two healthy adult donors were incubated with 30 μg/mL of plate-bound CAR-specific anti-idiotypic antibody (see, e.g., WO2018/023100) at 37° C. for a period of seven days. During this seven-day period, engineered CAR T cells were concurrently treated with Compound 17 (0.1-1000 nM) or a vehicle control added at day 0.
(§2) Stimulated CAR T cells were then re-challenged with CD19-expressing tumor cells or tumor spheroids in the absence of Compound 17, and cytolytic activity and cytokine production were assessed.
To assess cytolytic function, the stimulated CAR-T cell composition was co-cultured with various CD19-expressing lymphoma cells at a 2.5:1 effector:target ratio. The tumor cells were engineered to express NucLight Red (NLR) and tumor cell number was monitored by Incucyte®. […] Duplicate values for cell compositions manufactured from the two different healthy donors are shown.

[5] = tested on: anti-CD19 CAR-expressing T cells; assay: Cytokine production (MSD) of CAR-T cells concurrently treated during chronic stimulation, 2D co-culture; conditions: concurrent treatment during chronic stimulation; 48 hours 2D co-culture with K562.CD19, Granta-519, Raji
Experimental: as §1, §2
(§3) Supernatant was collected after 48 hours from the above co-cultures of chronically stimulated CAR-expressing T cells and CD19-expressing tumor cells. Cytokine production was measured from the supernatant by meso scale discovery (MSD) analysis of the collected cell supernatants. […] Duplicate values for cell compositions manufactured from the two different healthy donors are shown.

[6] = tested on: anti-CD19 CAR-expressing T cells; assay: Rescue treatment of chronically stimulated CAR-T cells: cytolytic activity, 2D co-culture with CD19-expressing lymphoma cells; conditions: rescue treatment during 2D co-culture, higher concentrations
Experimental: (§4) Anti-CD19 CAR-expressing T cells, produced as described in Example 1, were chronically stimulated with plate-bound CAR-specific anti-idiotypic antibody for seven days as described in Example 2, but in the absence of Compound 17 during chronic stimulation. Instead, chronically stimulated CAR T cells were treated with Compound 17 during re-challenge with CD19-expressing tumor cells, after which cytolytic activity and cytokine production were assessed.
The chronically stimulated CAR-T cells were incubated with various CD19-expressing lymphoma cells at a 2.5:1 effector:target ratio in the presence of DGKi (0-1000 nM). The tumor cells were labeled with NucLight Red (NLR) and tumor cell number was monitored by Incucyte®.

[7] = tested on: anti-CD19 CAR-expressing T cells; assay: Rescue treatment of chronically stimulated CAR-T cells: cytokine production (MSD), 2D co-culture; conditions: 48 hours 2D co-culture with K562.CD19, Granta-519, Raji
Experimental: as §4, §3

[8] = tested on: anti-CD19 CAR-expressing T cells; assay: Rescue treatment of chronically stimulated CAR-T cells: cytolytic activity, 3D tumor spheroids; conditions: rescue treatment during co-culture; A549.CD19 and Granta-519 spheroids, day 9
Experimental: as §4
Cytolytic activity also was assessed in CD19-expressing tumor spheroid cultures incubated with chronically stimulated CAR-T cells in the presence of DGKi. A549 CD19+ tumor spheroids or Granta-519 tumor spheroids were incubated with the anti-CD19 CAR-expressing T cells at an effector to target ratio of 1:2 for up to 14 days in the presence of DGKi (0-1000 nM). The tumor spheroids were engineered to express a red fluorescent dye to permit monitoring of tumor cell lysis by microscopy during the assay. Cytolytic activity was assessed by monitoring fluorescence over time, and the tumor volume (normalized to time zero) was measured as the number of red calibrated units (RCU)×μm^2 area. […] Duplicate values for cell compositions manufactured from the two different healthy donors are shown.

[9] = tested on: anti-CD19 CAR-expressing T cells; assay: Rescue treatment of chronically stimulated CAR-T cells: cytokine production (MSD), 3D tumor spheroids; conditions: five days 3D co-culture with A549.CD19 and Granta-519 spheroids
Experimental: as §4
as §3, with “at day 5” for “after 48 hours”, “tumor spheroid cultures with” for “co-cultures of”, “T” for “T cells and CD19-expressing tumor”

anti-HPV16 eTCR T cells = assay: Rescue treatment of chronically stimulated eTCR T cells: cytolytic function against HPV-expressing CaSki cells; conditions: 100 nM compound during co-culture, 2.5:1 effector:target; eTCR cells pre-stimulated with 10 or 20 μg/mL anti-Vbeta
From the text: Primary human CD4+ and CD8+ T cells were isolated from healthy donors by immunoaffinity-based methods. The isolated CD4+ and CD8+ T cells were combined and stimulated with an anti-CD3/anti-CD28 reagent, and then were transduced with a lentiviral vector encoding an anti-human papillomavirus 16 (anti-HPV16) eTCR. The nucleotide sequences encoding the beta chain and the alpha chain of the eTCR were separated by a sequence encoding a 2A ribosome skip element. Following transduction, the cells were cultured in media containing human serum and cytokines for 9-10 days prior to further assessment. To assess the effects of rescue treatment with Compound 17 on cytolytic function, eTCR cells were stimulated for six days using 10 μg/mL or 20 μg/mL plate-bound antibody against the TCR Vbeta chain in the absence of Compound 17. Following chronic stimulation, the eTCR-T cells were co-cultured with HPV-expressing CaSki cells at a 2.5:1 effector:target ratio in the presence of Compound 17 at 100 nM. As a control, chronically stimulated eTCR cells were co-cultured with CaSki cells in the absence of Compound 17. The CaSki cells were transduced with NucLight Red (NLR) and tumor cell number was monitored by Incucyte®.

CC[C@H]1CN([C@@H](CC)c2ccc(C(F)(F)F)cc2)[C@H](CC)CN1c1nc(=O)n(C)c2ccc(C#N)nc12 [Compound 17, 4-((2S,5R)-2,5-diethyl-4-((S)-1-(4-(trifluoromethyl)phenyl)propyl)piperazin-1-yl)-1-methyl-2-oxo-1,2-dihydropyrido[3,2-d]pyrimidine-6-carbonitrile]
cytolytic function (percent specific lysis) [1]: did not affect cytolytic function | production of IFNγ, IL-2 and TNFα in supernatant [2]: dose-dependent increase in production of all three cytokines | T cell viability [3]: no impact | CAR-T cell cytolytic activity (tumor cell number) [4]: decreased the cytolytic activity | production of IFNγ, IL-2 and TNFα in supernatant [5]: dose-dependent increase in production of all three cytokines | CAR-T cell cytolytic activity (tumor cell number) ([6]; Granta-519 cells): improved the cytolytic activity | CAR-T cell cytolytic activity (tumor cell number) ([6]; K562.CD19 cells): improved the cytolytic activity | production of IFNγ, IL-2 and TNFα in supernatant [7]: dose-dependent increase in production of all three cytokines | CAR-T cell cytolytic activity (normalized tumor volume) [8]: improved the cytolytic activity | production of IFNγ, IL-2 and TNFα in supernatant [9]: dose-dependent increase in production of all three cytokines | cytolytic function of chronically stimulated eTCR cells (CaSki tumor cell number) (anti-HPV16 eTCR T cells): able to improve cytolytic function
